# Experimental data reported in the supplement of paper PMC11061612.
# Tests used:
# Assay in all cases: combination Emax (second highest fraction inhibited in the dose matrix, 72 h); higher = more inhibition; extreme values may be limits of the assay
# [1] = test system: NY (Osteosarcoma)
# Outline: (§1)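 Bliss excess equals the observed combination effect minus the expected value EA + EB − EA·EB, where EA and EB are the effects of each agent alone. Combination Emax is the second-highest inhibition within the matrix. Inhibition was scaled from CellTiter-Glo 2.0 luminescence, with 0 set by vehicle wells and 1 by blank wells, after 72 hours of two-drug dosing of cells plated in 1536-well plates.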
# [2] = test system: FU97 (Gastric Carcinoma)
# Outline: as §1
# [3] = test system: ARH-77 (Non-Cancerous)
# Outline: as §1
# [4] = test system: SK-MES-1 (Squamous Cell Lung Carcinoma)
# Outline: as §1
# [5] = test system: NCI-H2066 (Squamous Cell Lung Carcinoma)
# Outline: as §1
# [6] = test system: SISO (Cervical Carcinoma)
# Outline: as §1
# [7] = test system: A3-KAW (B-Cell Non-Hodgkin's Lymphoma)
# Outline: as §1
# [8] = test system: TT (Thyroid Gland Carcinoma)
# Outline: as §1
# [9] = test system: NCI-H1650 (Lung Adenocarcinoma)
# Outline: as §1
# [10] = test system: NCI-H2591 (Mesothelioma)
# Outline: as §1
# [11] = test system: HCC1954 (Breast Carcinoma)
# Outline: as §1
# [12] = test system: NCI-H1693 (Lung Adenocarcinoma)
# Outline: as §1
# [13] = test system: ECC10 (Gastric Carcinoma)
# Outline: as §1
# [14] = test system: VCaP (Prostate Carcinoma)
# Outline: as §1
# [15] = test system: ONS-76 (Other Solid Carcinomas)
# Outline: as §1
# [16] = test system: NCI-H1666 (Lung Adenocarcinoma)
# Outline: as §1
# [17] = test system: COLO-320-HSR (Colorectal Carcinoma)
# Outline: as §1
# [18] = test system: OS-RC-2 (Kidney Carcinoma)
# Outline: as §1
# [19] = test system: NCI-H64 (Small Cell Lung Carcinoma)
# Outline: as §1
# [20] = test system: SK-MG-1 (Low Grade Glioma)
# Outline: as §1
Structure (SMILES),combination Emax [1],combination Emax [2],combination Emax [3],combination Emax [4],combination Emax [5],combination Emax [6],combination Emax [7],combination Emax [8],combination Emax [9],combination Emax [10],combination Emax [11],combination Emax [12],combination Emax [13],combination Emax [14],combination Emax [15],combination Emax [16],combination Emax [17],combination Emax [18],combination Emax [19],combination Emax [20]
"C=CCn1c(=O)c2cnc(Nc3ccc(N4CCN(C)CC4)cc3)nc2n1-c1cccc(C(C)(C)O)n1 [AZD1775] + O=C(c1cc(Cc2n[nH]c(=O)c3ccccc23)ccc1F)N1CCN(C(=O)C2CC2)CC1 [Olaparib] (first compound max 1 µM, partner max 10 µM)",0.578,0.281,0.929,0.5,0.377,0.679,0.944,0.273,0.403,0.253,0.218,0.288,0.796,0.631,0.662,0.335,0.606,0.298,0.869,0.572
"CCN(CCO)CCCOc1ccc2c(Nc3cc(CC(=O)Nc4cccc(F)c4)[nH]n3)ncnc2c1 [AZD2811] + C=CCn1c(=O)c2cnc(Nc3ccc(N4CCN(C)CC4)cc3)nc2n1-c1cccc(C(C)(C)O)n1 [AZD1775] (first compound max 1 µM, partner max 1 µM)",0.527,0.219,0.95,0.537,0.203,0.568,0.902,0.365,0.346,0.194,0.161,0.225,0.898,0.558,0.607,0.327,0.631,0.305,0.813,0.455
"CCN(CCO)CCCOc1ccc2c(Nc3cc(CC(=O)Nc4cccc(F)c4)[nH]n3)ncnc2c1 [AZD2811] + C[C@@H]1COCCN1C2=NC(=NC(=C2)C3(CC3)[S@](=N)(=O)C)C4=C5C=CNC5=NC=C4 [AZD6738] (first compound max 1 µM, 7x7, partner max 10 µM)",0.619,0.373,0.941,0.668,0.339,0.551,0.968,0.475,0.414,0.315,0.39,0.232,0.876,0.289,0.908,0.28,0.599,0.429,0.781,0.515
"CCN(CCO)CCCOc1ccc2c(Nc3cc(CC(=O)Nc4cccc(F)c4)[nH]n3)ncnc2c1 [AZD2811] + O=C(c1cc(Cc2n[nH]c(=O)c3ccccc23)ccc1F)N1CCN(C(=O)C2CC2)CC1 [Olaparib] (first compound max 1 µM, 7x7, partner max 10 µM)",0.169,0.332,0.474,0.271,0.214,0.454,0.688,0.458,0.249,0.182,0.152,0.236,0.835,0.224,0.398,0.284,0.0695,0.178,0.434,0.405
"CN(CCO)CC[C@H](CSc1ccccc1)Nc1ccc(S(=O)(=O)NC(=O)c2ccc(N3CCC([C@@H](O)c4ccccc4-c4ccc(Cl)cc4)CC3)cc2)cc1S(=O)(=O)C(F)(F)F [AZD4320] + C=CCn1c(=O)c2cnc(Nc3ccc(N4CCN(C)CC4)cc3)nc2n1-c1cccc(C(C)(C)O)n1 [AZD1775] (first compound max 1 µM, partner max 1 µM)",0.793,0.454,1,0.797,0.646,0.549,0.892,0.484,0.403,0.159,0.718,0.355,1,0.717,0.726,0.302,0.632,0.337,1,0.91
"CN(CCO)CC[C@H](CSc1ccccc1)Nc1ccc(S(=O)(=O)NC(=O)c2ccc(N3CCC([C@@H](O)c4ccccc4-c4ccc(Cl)cc4)CC3)cc2)cc1S(=O)(=O)C(F)(F)F [AZD4320] + CCN(CCO)CCCOc1ccc2c(Nc3cc(CC(=O)Nc4cccc(F)c4)[nH]n3)ncnc2c1 [AZD2811] (first compound max 1 µM, 7x7, partner max 1 µM)",0.121,0.177,0.95,0.342,0.543,0.401,0.371,0.615,0.254,0.561,0.851,0.221,1,0.194,0.589,0.154,0.0615,0.159,1,0.731
"CN(CCO)CC[C@H](CSc1ccccc1)Nc1ccc(S(=O)(=O)NC(=O)c2ccc(N3CCC([C@@H](O)c4ccccc4-c4ccc(Cl)cc4)CC3)cc2)cc1S(=O)(=O)C(F)(F)F [AZD4320] + CN(C)CCCOc1ccc(-c2ccc3ncc4c(c3c2)n(C2CCOCC2)c(=O)n4C)cn1 [AZD0156] (first compound max 1 µM, 7x7, partner max 1 µM)",0.0862,0.258,0.793,0.208,0.619,0.0433,0.228,0.269,0.0865,0.13,0.327,0.19,1,0.19,0.178,0.141,0.01,0.209,0.973,0.274
"CN(CCO)CC[C@H](CSc1ccccc1)Nc1ccc(S(=O)(=O)NC(=O)c2ccc(N3CCC([C@@H](O)c4ccccc4-c4ccc(Cl)cc4)CC3)cc2)cc1S(=O)(=O)C(F)(F)F [AZD4320] + C[C@@H]1COCCN1C2=NC(=NC(=C2)C3(CC3)[S@](=N)(=O)C)C4=C5C=CNC5=NC=C4 [AZD6738] (first compound max 1 µM, 7x7, partner max 10 µM)",0.903,0.383,1,0.904,0.603,0.681,0.986,0.726,0.532,0.612,0.734,0.546,1,0.577,0.877,0.418,0.543,0.517,0.99,0.644
"CN(CCO)CC[C@H](CSc1ccccc1)Nc1ccc(S(=O)(=O)NC(=O)c2ccc(N3CCC([C@@H](O)c4ccccc4-c4ccc(Cl)cc4)CC3)cc2)cc1S(=O)(=O)C(F)(F)F [AZD4320] + C[C@@H](Nc1cc(F)cc(F)c1)c1cc(C(=O)N(C)C)cc2c(=O)cc(N3CCOCC3)oc12 [AZD8186] (first compound max 1 µM, 7x7, partner max 3 µM)",0.589,0.507,0.899,0.434,0.64,0.315,0.761,0.803,0.402,0.214,0.546,0.386,1,0.37,0.338,0.42,0.236,0.581,0.967,0.652
"CN(CCO)CC[C@H](CSc1ccccc1)Nc1ccc(S(=O)(=O)NC(=O)c2ccc(N3CCC([C@@H](O)c4ccccc4-c4ccc(Cl)cc4)CC3)cc2)cc1S(=O)(=O)C(F)(F)F [AZD4320] + Cc1cc2ncnn2cc1Nc1ncc2c(n1)n(C1CCOCC1)c(=O)n2C [AZD7648] (first compound max 1 µM, 7x7, partner max 10 µM)",0.156,0.32,0.841,0.127,0.885,0.0433,0.344,0.209,0.245,0.188,0.48,0.174,1,0.165,0.173,0.197,0.0909,0.119,0.964,0.295
"CN(CCO)CC[C@H](CSc1ccccc1)Nc1ccc(S(=O)(=O)NC(=O)c2ccc(N3CCC([C@@H](O)c4ccccc4-c4ccc(Cl)cc4)CC3)cc2)cc1S(=O)(=O)C(F)(F)F [AZD4320] + Cn1cnc2c(F)c(Nc3ccc(Br)cc3Cl)c(C(=O)NOCCO)cc21 [Selumetinib] (first compound max 1 µM, 7x7, partner max 3 µM)",0.556,0.544,0.896,0.472,0.71,0.304,0.861,0.781,0.318,0.242,0.617,0.459,1,0.208,0.628,0.697,0.198,0.347,0.988,0.441
"COc1nnc2ccc(N3CCC(c4ccc(OCCN5CCN(C)C(=O)[C@H]5C)cc4)CC3)nn12 [AZD5153] + C=CCn1c(=O)c2cnc(Nc3ccc(N4CCN(C)CC4)cc3)nc2n1-c1cccc(C(C)(C)O)n1 [AZD1775] (first compound max 1 µM, partner max 1 µM)",0.567,0.792,0.968,0.743,0.475,0.65,1,0.563,0.477,0.448,0.306,0.565,0.901,0.767,0.601,0.413,0.661,0.486,0.884,0.618
